Literature values, collected in patent publication US20100286080A1, “AQUEOUS COMPOSITION COMPRISING CHITOSAN AND AN ACIDIC DRUG” (The Jordanian Pharmaceutical Manufacturing Co., priority 2007, published 2010).

How the values were obtained:
[1] = single 200-mg oral dose, fasting subjects

CC(C)Cc1ccc(C(C)C(=O)O)cc1 (centres unmarked) [Ibuprofen]
Time of peak plasma levels after administration [1]: about 1 hr | Solubility in water: practically insoluble in water
